Reference: paper PMC5459853, “Cathepsin S inhibition combines control of systemic and peripheral pathomechanisms of autoimmune tissue injury” (Scientific Reports, 2017)

What was measured:
Human Cat-F = target: T1, Human Cat-F (Homo sapiens, UniProt Q9UBX1); assay: Enzymatic isoform-selectivity assay, Cat-F; type: biochemical
T1 sequence (Q9UBX1 271-484): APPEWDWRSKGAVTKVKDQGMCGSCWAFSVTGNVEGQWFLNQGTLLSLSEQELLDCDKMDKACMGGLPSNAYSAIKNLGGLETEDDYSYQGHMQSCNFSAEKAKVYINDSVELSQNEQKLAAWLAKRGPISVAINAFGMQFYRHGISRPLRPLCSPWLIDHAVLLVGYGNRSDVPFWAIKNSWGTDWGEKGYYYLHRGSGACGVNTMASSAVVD
Method: RO5459072 was provided by F. Hoffmann-La Roche, Ltd., Basel, Switzerland. It is a competitive inhibitor of the active site of Cat-S and its nitrile function allows covalent reversible inhibition of Cat-S. The synthesis of RO5459072 has been described in WO 2010121918 and WO 2013068434. Recombinant cathepsins were produced in-house or were purchased from commercial vendors. Initial enzymatic assays to determine isoform-selectivity in vitro were performed as previously described, [23]. […] For this the Cat-S-dependent hydrolysis of the fluorogenic substrate Z-Phe-Arg-AMC (Sigma Aldrich) was followed at various inhibitor concentrations. The active fraction of Cat-S was detemined as 70% with a HPLC assay measuring modification of Cat-S with the covalent inhibitor LHVS. The buffer (100 mM potassium phosphate, 50 mM NaCl, 5 mM EDTA, 5 mM TCEP, pH 6) was thoroughly degassed prior to perfoming measurements to prevent oxidation of the catalytic cystein residue by dissolved oxygen. For the Ki-determination the substrate was employed at 10 µM = KM. All kinetic measurements were performad on a SFM-3000 stopped-flow instrument (Bio-Logic Science Instruments) and data were analyzed with GraphPad Prism v5.

MRL-(Fas)lpr mice = assay: Experimental SLE and lupus nephritis, treatment week 11 to 19; type: in vivo
Method: Four-week-old female MRL-(Fas)lpr mice were purchased from Harlan Winkelmann (Borchen, Germany) and kept under pathogen-free conditions in a 12 hour light and dark cycle with free access to food and water. All animal experiments were performed in accordance with the European protection laws of animal welfare, and with approval by the local government authorities Regierung von Oberbayern (reference number: 55.2.1-54-2532.2-11-12). At 11 or 15 weeks of age only mice with proteinuria (Albustix, Bayer AG, Leverkusen, Germany) were randomized into five different groups (n = 10) receiving different medicated diets: Three groups were fed with chow mixed with either 3, 10 or 30 mg/kg/day RO5459072, another group’s chow was mixed with 100 mg/kg/day mycophenolate mofetil (MMF), and one group received a standard diet (vehicle). The dose of MMF was chosen according to several studies reporting strong efficacy on SLE and lupus nephritis in MRL-(Fas)lpr mice[24]–[26]. […] At the age of 19 weeks all mice were sacrificed by cervical dislocation. Blood and urine samples were collected at different time points as indicated. In other experiments 7 week old female MRL-(Fas)lpr mice were randomized into three groups (n = 3) to receive a single intravenous injection of 10 µg sterile recombinant Cat-S and one group receiving vehicle (100 µl sterile PBS). One of the Cat-S groups was pretreated with 30 mg/kg/day RO5459072 starting one week prior to Cat-S injection; another group was pretreated with a total of four daily intra-peritoneal injections of the PAR-2 inhibitor GB83 (10 mg/kg).
Kidney tissue samples were collected from all mice and fixed overnight in 4% buffered formalin. Subsequently the fixed tissue samples were embedded in paraffin and cut into 4 µm thick serial sections. Kidney paraffin sections were stained with periodic acid-Schiff (PAS) reaction using standardized protocols as described. Scoring of lupus nephritis activity and chronicity indices was performed according to human lupus nephritis, [43]. Methenamine silver staining was performed on paraffin embedded kidney sections and semiquantitatively scored form 0–3 by a blinded observer. For immunostaining the following primary antibodies were used: anti-mouse CD3 (Abcam, Cambridge, UK), complement C3c (Biobyt Ltd, Cambridge, UK), CD31 (Dianova GmbH, Hamburg, Germany), WT1 (Santa Cruz Biotechnology, Dallas, Texas) and nephrin (Acris Antibodies, San Diego, CA). The immunostaining for C3c and CD31 were analyzed using the ImageJ software by measuring positively stained area and dividing it by the total area of the glomerulus and reported as percentage of +ve area. Sections stained for WT1/nephrin and CD3 were evaluated by counting positive cells per glomerulus. All the morphometric analysis were carried out in a blinded fashion.
Urinary albumin/creatinine ratios were determined using the Mouse Albumin ELISA Quantitation set (Bethyl Laboratories, Montgomery, TX) and the Creatinine FS kit (DiaSys Diagnostic Systems, Holzheim, Germany)[44]. BUN levels were determined in plasma samples using a Urea FS kit (DiaSys Diagnostic Systems). Mouse IgM, IgG and its isotypes IgG1, IgG2a and IgG2b plasma levels were measured using ELISA Sets (Bethyl Laboratories) at a plasma dilution of 1:1,000 to 1:100,000. Double-stranded DNA IgG and IgM antibodies were quantified as described. Briefly, 96 well Nunc-Immuno plates (Thermo Fisher Scientific, Roskilde, Denmark) were coated with poly-L-lysine (1:1 diluted with PBS) and incubated for two hours. After washing the plates, the plates were coated with 1 µg/ml mouse tail dsDNA sparing the wells for standards, which were coated with anti-mIgG and anti-mIgM (Bethyl Laboratories). The standard curve was fixed from purified mIgG and mIgM (Bethyl Laboratories). The plasma samples were diluted 1:1,000 and added into the wells. After 1 h the assay was developed using HRP-labelled goat anti-mIgG and anti-mIgM and TMB substrate (BD Bioscience, San Diego, CA). […]

SMILES: Cn1cc(-c2ccc(S(=O)(=O)[C@@H]3C[C@@H](C(=O)NC4(C#N)CC4)N(C(=O)C4(C(F)(F)F)CC4)C3)c(C(F)(F)F)c2)cn1 [RO5459072]
- IC50 (Human Cat-F): > 1000 nM
- IC50, Human Cat-F (Human Cat-F): No sub-micro molar inhibition
- intrarenal mononuclear phagocyte and T cell subsets (MRL-(Fas)lpr mice; flow cytometry of kidneys): suppressed
- reduction of urinary albumin/creatinine (A/C) ratio more than MMF (MRL-(Fas)lpr mice; highest dose of RO5459072 versus MMF): 2 log scales
- plasma levels of antinuclear antibodies (MRL-(Fas)lpr mice; highest dose, week 19): suppressed
- food intake or body weight between groups (MRL-(Fas)lpr mice; medicated diets, throughout the study period): no significant difference
- intrarenal mRNA expression of IL-6, MCP-1/CCL2, RANTES/CCL5 and CXCL2 (MRL-(Fas)lpr mice; real time PCR, kidney): suppressed
- intrarenal mRNA expression of TNF-α, IFN-γ and SDF-1/CXCL12 (MRL-(Fas)lpr mice; real time PCR, kidney): remained unaffected
- blood urea nitrogen (BUN) over time (MRL-(Fas)lpr mice; week 11-19): prevented the progressive increase
- podocyte number and proteinuria (MRL-(Fas)lpr mice; week 11-19): protective effect
- dsDNA IgM (MRL-(Fas)lpr mice; week 11-19, ELISA): did not affect
- total levels of plasma IgM (MRL-(Fas)lpr mice; week 11-19, ELISA): did not affect
- spleen plasma cells and plasma IgG levels and IgG isotypes (MRL-(Fas)lpr mice; week 11-19, RO5459072 3, 10, 30 mg/kg/day, MMF 100 mg/kg/day): dose-dependently suppressed
- plasma dsDNA IgG levels (IgG autoantibodies) (MRL-(Fas)lpr mice; week 11-19, RO5459072 highest dose, MMF 100 mg/kg/day, ELISA): suppress plasma dsDNA IgG levels below baseline
- spleen CD11c+/CD11b+/MHCII+ antigen-presenting cells (MRL-(Fas)lpr mice; week 11-19, flow cytometry): suppressed
- spleen CD11c+/F4/80+/MHCII+ cells (MRL-(Fas)lpr mice; week 11-19, flow cytometry): suppressed
- complement C3 deposits, diffuse proliferative glomerular lesions and glomerulosclerosis (MRL-(Fas)lpr mice; week 19): less
- integrity of the glomerular vasculature (CD31 staining) (MRL-(Fas)lpr mice; week 19): improved
- activity and chronicity scores of nephritis (MRL-(Fas)lpr mice; week 19, PAS sections): dose-dependently reduced
